Experimental data published in ChEMBL document CHEMBL5500358, “Identification of CH2-linked quinolone-aminopyrimidine hybrids as potent anti-MRSA agents: Low resistance potential and lack of cross-resistance with fluoroquinolone antibiotics” (Eur J Med Chem, 2024).
Values after ≈ are worked out from the molar mass of the structure shown. Active and inactive are the calls of the source. The rule behind the calls is not given here.

Legend:
Staphylococcus aureus [1] = assay: Antibacterial activity against fluoroquinolone/methicillin resistant Staphylococcus aureus Mu50 incubated for 16 to 18 hrs by absorbance based analysis; format: functional; settings: time 16-18 hrs
Staphylococcus aureus [2] = assay: Antibacterial activity against fluoroquinolone-sensitive methicillin resistant Staphylococcus aureus USA500 incubated for 16 to 18 hrs by absorbance based analysis; format: functional; settings: time 16-18 hrs
Staphylococcus aureus [3] = assay: Antibacterial activity against fluoroquinolone-sensitive methicillin resistant Staphylococcus aureus ATCC 33591 incubated for 16 to 18 hrs by absorbance based analysis; format: functional; settings: time 16-18 hrs
Escherichia coli = assay: Antibacterial activity against Escherichia coli ATCC 25922 incubated for 16 to 18 hrs by absorbance based analysis; format: functional; settings: time 16-18 hrs
[4] = Metabolic stability in rat liver microsomes assessed as compound remaining at 1 uM measured after 60 mins by LC-MS/MS analysis; format: ADME, Microsome; settings: read-out: Stability
[5] = Metabolic stability in rat liver microsomes assessed as elimination half life at 1 uM by LC-MS/MS analysis; format: ADME, Microsome; settings: read-out: beta t1/2
[6] = Metabolic stability in human liver microsomes assessed as elimination half life at 1 uM by LC-MS/MS analysis; format: ADME, Microsome; settings: read-out: beta t1/2
[7] = Metabolic stability in human liver microsomes assessed as microsomal intrinsic clearance at 1 uM by LC-MS/MS analysis; format: ADME, Microsome; settings: read-out: CLH
HEK293 = assay: Cytotoxicity against HEK293 cells assessed as reduction in cell viability at 100 uM incubated for 24 hrs by CCK-8 assay; format: toxicity, cell-based; settings: human, hek293, 24 h
[8] = Metabolic stability in rat liver microsomes assessed as drug elimination rate constant at 1 uM by LC-MS/MS analysis; format: ADME, Microsome
[9] = Metabolic stability in human liver microsomes assessed as drug elimination rate constant at 1 uM by LC-MS/MS analysis; format: ADME, Microsome
[10] = Metabolic stability in rat liver microsomes assessed as liver intrinsic clearance at 1 uM by LC-MS/MS analysis; format: ADME, Microsome; settings: read-out: CLH
[11] = Metabolic stability in rat liver microsomes assessed as microsomal intrinsic clearance at 1 uM by LC-MS/MS analysis; format: ADME, Microsome; settings: read-out: CLH
A549 = assay: Cytotoxicity against human A549 cells assessed as reduction in cell viability at 100 uM incubated for 24 hrs by CCK-8 assay; format: toxicity, cell-based; settings: a549, 24 h
[12] = Metabolic stability in human liver microsomes assessed as liver intrinsic clearance at 1 uM by LC-MS/MS analysis; format: ADME, Microsome; settings: read-out: CLH
[13] = Metabolic stability in human liver microsomes assessed as compound remaining at 1 uM measured after 60 mins by LC-MS/MS analysis; format: ADME, Microsome; settings: read-out: Stability
Staphylococcus aureus [14] = assay: Antibacterial activity against methicillin resistant Staphylococcus aureus ATCC 33591 measured after 15 passages; format: functional

| SMILES | MIC (Staphylococcus aureus [1]) | MIC (Staphylococcus aureus [2]) | MIC (Staphylococcus aureus [3]) | MIC (Escherichia coli) | further results |
| --- | --- | --- | --- | --- | --- |
| O=C(O)c1cn(C2CC2)c2cc(Nc3nccc(Cc4cccc(Cl)c4)n3)c(F)cc2c1=O | 6.25 mg/L (≈ 13.4 µM) | 6.25 mg/L (≈ 13.4 µM) | 2 mg/L (≈ 4.3 µM) | > 64 mg/L |  |
| O=C(O)c1cn(C2CC2)c2cc(Nc3nccc(Cc4ccc(Cl)c(Cl)c4)n3)c(F)cc2c1=O | 6.25 mg/L (≈ 12.5 µM) | 6.25 mg/L (≈ 12.5 µM) | 0.5 mg/L (≈ 1 µM) | > 64 mg/L |  |
| O=C(O)c1cn(C2CC2)c2cc(Nc3nccc(Cc4ccc(F)cc4F)n3)c(F)cc2c1=O | 3.12 mg/L (≈ 6.69 µM) | 3.12 mg/L (≈ 6.69 µM) | 1 mg/L (≈ 2.14 µM) | > 64 mg/L |  |
| Cc1ccccc1Cc1ccnc(Nc2cc3c(cc2F)c(=O)c(C(=O)O)cn3C2CC2)n1 |  |  | 2 mg/L (≈ 4.5 µM) | > 64 mg/L |  |
| O=C(O)c1cn(C2CC2)c2cc(Nc3nccc(Cc4ccc(F)c(F)c4)n3)ccc2c1=O | 1.56 mg/L (≈ 3.48 µM) | 0.78 mg/L (≈ 1.74 µM) | 0.5 mg/L (≈ 1.12 µM) | > 64 mg/L |  |
| COc1ccccc1Cc1ccnc(Nc2cc3c(cc2F)c(=O)c(C(=O)O)cn3C2CC2)n1 |  |  | 4 mg/L (≈ 8.69 µM) | > 64 mg/L |  |
| O=C(O)c1cn(C2CC2)c2cc(Nc3nccc(Cc4ccc(Cl)cc4)n3)ccc2c1=O | 1.56 mg/L (≈ 3.49 µM) | 1.56 mg/L (≈ 3.49 µM) | 0.5 mg/L (≈ 1.12 µM) | > 64 mg/L |  |
| N#Cc1ccccc1Cc1ccnc(Nc2cc3c(cc2F)c(=O)c(C(=O)O)cn3C2CC2)n1 |  |  | 8 mg/L (≈ 17.6 µM) | > 64 mg/L |  |
| O=C(O)c1cn(C2CC2)c2cc(N3CCNCC3)c(F)cc2c1=O [CIPROFLOXACIN] |  | 0.39 mg/L (≈ 1.18 µM) | 0.25 mg/L (≈ 0.754 µM) |  |  |
| O=C(O)c1cn(C2CC2)c2cc(Nc3nccc(Cc4ccc(Cl)cc4Cl)n3)ccc2c1=O | 0.78 mg/L (≈ 1.62 µM) | 0.39 mg/L (≈ 0.81 µM) | 0.25 mg/L (≈ 0.519 µM) | > 64 mg/L |  |
| COc1ccc(Cc2ccnc(Nc3cc4c(cc3F)c(=O)c(C(=O)O)cn4C3CC3)n2)cc1 |  |  | 4 mg/L (≈ 8.69 µM) | > 64 mg/L |  |
| Cc1ccc(Cc2ccnc(Nc3ccc4c(=O)c(C(=O)O)cn(C5CC5)c4c3)n2)cc1C | 0.78 mg/L (≈ 1.77 µM) | 0.78 mg/L (≈ 1.77 µM) | 0.5 mg/L (≈ 1.14 µM) | > 64 mg/L | remaining at 1 h, 1 µM [4]: 49.6%; half-life at 1 µM [5]: 59.2 min; half-life at 1 µM [6]: 49.4 min; microsomal CLint at 1 µM [7]: 28.2 µL/min/mg; Activity (HEK293): Toxic; k el at 1 µM [8]: 0.0002 s⁻¹; k el at 1 µM [9]: 0.000233 s⁻¹; CLint scaled at 1 µM [10]: 2.53 L/h/kg; microsomal CLint at 1 µM [11]: 23.4 µL/min/mg; Activity (A549): Toxic; CLint scaled at 1 µM [12]: 1.6 L/h/kg; remaining at 1 h, 1 µM [13]: 41.1% |
| Cc1ccc(Cc2ccnc(Nc3cc4c(cc3F)c(=O)c(C(=O)O)cn4C3CC3)n2)cc1C | 25 mg/L (≈ 54.5 µM) | 25 mg/L (≈ 54.5 µM) | 2 mg/L (≈ 4.36 µM) | > 64 mg/L |  |
| O=C(O)c1cn(C2CC2)c2cc(Nc3nccc(Cc4cccc(F)c4)n3)c(F)cc2c1=O |  |  | 2 mg/L (≈ 4.46 µM) | > 64 mg/L |  |
| O=C(O)c1cn(C2CC2)c2cc(Nc3nccc(Cc4ccc(Cl)c(Cl)c4)n3)ccc2c1=O | 1.56 mg/L (≈ 3.24 µM) | 1.56 mg/L (≈ 3.24 µM) | 0.5 mg/L (≈ 1.04 µM) | > 64 mg/L |  |
| O=C(O)c1cn(C2CC2)c2cc(Nc3nccc(Cc4ccc(Cl)cc4)n3)c(F)cc2c1=O | 3.12 mg/L (≈ 6.71 µM) | 1.56 mg/L (≈ 3.36 µM) | 1 mg/L (≈ 2.15 µM) | > 64 mg/L |  |
| O=C(O)c1cn(C2CC2)c2cc(Nc3nccc(Cc4ccccc4Cl)n3)c(F)cc2c1=O | 6.25 mg/L (≈ 13.4 µM) | 6.25 mg/L (≈ 13.4 µM) | 2 mg/L (≈ 4.3 µM) | > 64 mg/L |  |

| SMILES | MIC (Staphylococcus aureus [1]) | MIC (Staphylococcus aureus [2]) | MIC (Staphylococcus aureus [3]) | MIC (Escherichia coli) | further results |
| --- | --- | --- | --- | --- | --- |
| Cc1ccc(Oc2ccnc(Nc3ccc4c(=O)c(C(=O)O)cn(C5CC5)c4c3)n2)cc1C | 0.39 mg/L (≈ 0.881 µM) | 0.39 mg/L (≈ 0.881 µM) | 0.5 mg/L (≈ 1.13 µM) | > 64 mg/L | half-life at 1 µM [5]: 8.7 min; half-life at 1 µM [6]: 25.9 min |
| O=C(O)c1cn(C2CC2)c2cc(Nc3nccc(Cc4ccccc4Cl)n3)ccc2c1=O | 3.12 mg/L (≈ 6.98 µM) | 3.12 mg/L (≈ 6.98 µM) | 0.5 mg/L (≈ 1.12 µM) | > 64 mg/L |  |
| O=C(O)c1cn(C2CC2)c2cc(Nc3nccc(Cc4ccc(Cl)cc4Cl)n3)c(F)cc2c1=O | 3.12 mg/L (≈ 6.25 µM) | 3.12 mg/L (≈ 6.25 µM) | 0.5 mg/L (≈ 1 µM) | > 64 mg/L |  |
| Cc1cccc(Cc2ccnc(Nc3cc4c(cc3F)c(=O)c(C(=O)O)cn4C3CC3)n2)c1 |  |  | 4 mg/L (≈ 9 µM) | > 64 mg/L |  |
| C[C@H]1COc2c(N3CCN(C)CC3)c(F)cc3c(=O)c(C(=O)O)cn1c23 [LEVOFLOXACIN ANHYDROUS] | 25 mg/L (≈ 69.2 µM) | 0.2 mg/L (≈ 0.553 µM) |  |  |  |
| Cc1ncc2n1-c1ccc(Cl)cc1C(c1ccccc1F)=NC2 [MIDAZOLAM] |  |  |  |  | remaining at 1 h, 1 µM [4]: 0.48%; half-life at 1 µM [5]: 2.58 min; half-life at 1 µM [6]: 2.77 min; microsomal CLint at 1 µM [7]: 1250 µL/min/mg; k el at 1 µM [8]: 0.00448 s⁻¹; k el at 1 µM [9]: 0.00417 s⁻¹; microsomal CLint at 1 µM [11]: 1350 µL/min/mg; remaining at 1 h, 1 µM [13]: 0.691% |
| O=C(O)c1cn(C2CC2)c2cc(Nc3nccc(Cc4cccc(Cl)c4)n3)ccc2c1=O | 1.56 mg/L (≈ 3.49 µM) | 1.56 mg/L (≈ 3.49 µM) | 0.5 mg/L (≈ 1.12 µM) | > 64 mg/L |  |
| Cc1ccc(Cc2ccnc(Nc3ccc4c(=O)c(C(=O)O)cn(C5CC5)c4c3)n2)c(C)c1 | 1.56 mg/L (≈ 3.54 µM) | 1.56 mg/L (≈ 3.54 µM) | 1 mg/L (≈ 2.27 µM) | > 64 mg/L |  |
| COc1cccc(Cc2ccnc(Nc3cc4c(cc3F)c(=O)c(C(=O)O)cn4C3CC3)n2)c1 |  |  | 8 mg/L (≈ 17.4 µM) | > 64 mg/L |  |
| CN[C@H](CC(C)C)C(=O)N[C@H]1C(=O)N[C@@H](CC(N)=O)C(=O)N[C@H]2C(=O)N[C@H]3C(=O)N[C@H](C(=O)N[C@H](C(=O)O)c4cc(O)cc(O)c4-c4cc3ccc4O)[C@H](O)c3ccc(c(Cl)c3)Oc3cc2cc(c3O[C@@H]2O[C@H](CO)[C@@H](O)[C@H](O)[C@H]2O[C@H]2C[C@](C)(N)[C@H](O)[C@H](C)O2)Oc2ccc(cc2Cl)[C@H]1O [VANCOMYCIN] | 3.12 mg/L (≈ 2.15 µM) | 0.78 mg/L (≈ 0.538 µM) |  | > 64 mg/L | Activity (Staphylococcus aureus [14]): inactive |
| O=C(O)c1cn(C2CC2)c2cc(Nc3nccc(Cc4ccccc4)n3)c(F)cc2c1=O |  |  | 4 mg/L (≈ 9.29 µM) | > 64 mg/L |  |
| Cc1ccc(Cc2ccnc(Nc3cc4c(cc3F)c(=O)c(C(=O)O)cn4C3CC3)n2)cc1 |  |  | 2 mg/L (≈ 4.5 µM) | > 64 mg/L |  |
| O=C(O)c1cn(C2CC2)c2cc(Nc3nccc(Cc4ccc(F)c(F)c4)n3)c(F)cc2c1=O | 6.25 mg/L (≈ 13.4 µM) | 6.25 mg/L (≈ 13.4 µM) | 1 mg/L (≈ 2.14 µM) | > 64 mg/L |  |
| O=C(O)c1cn(C2CC2)c2cc(Nc3nccc(Cc4ccccc4F)n3)c(F)cc2c1=O |  |  | 2 mg/L (≈ 4.46 µM) | > 64 mg/L |  |
| O=C(O)c1cn(C2CC2)c2cc(Nc3nccc(Cc4ccc(F)cc4)n3)c(F)cc2c1=O |  |  | 2 mg/L (≈ 4.46 µM) | > 64 mg/L |  |
| Cc1ccc(Cc2ccnc(Nc3cc4c(cc3F)c(=O)c(C(=O)O)cn4C3CC3)n2)c(C)c1 | 6.25 mg/L (≈ 13.6 µM) | 6.25 mg/L (≈ 13.6 µM) | 1 mg/L (≈ 2.18 µM) | > 64 mg/L |  |
